# Test results as given in EP2158208B1, “PROCESS FOR PREPARING AN A2A-ADENOSINE RECEPTOR AGONIST AND ITS POLYMORPHS” (Gilead Sciences, Inc., priority 2007, dated 2008).
# Tests used:
# A2A-adenosine receptor = A2A-adenosine receptor (Homo sapiens, UniProt P29274); conditions: disclosed in U.S. Patent No. 6,403,567; cited from earlier work
# [1] = in humans; cited from earlier work
# [2] = stability of polymorphs under relative humidity stress / atmospheric moisture; type: physicochemical; conditions: for stability under relative humidity stress conditions: up to melting point, monohydrate
# Method: Moisture sorption/desorption data were collected on a VTI SGA-100 Vapor Sorption Analyzer. Sorption and desorption data were collected over a range of 5% to 95% relative humidity […] at 10% RH intervals under a nitrogen purge. Sodium chloride (NaCl) and polyvinylpyrrolidone (PVP) were used as the calibration standards. Equilibrium criteria used for analysis were less than 0.0100% weight change in 5 minutes, with a maximum equilibration time of 180 minutes if the weight criterion was not met. The plotted data have not been corrected for the initial moisture content.
# [3] = stability of polymorphs with temperature (thermal analyses); type: physicochemical; conditions: for relative stability among the polymorphs: at ambient temperatures, monohydrate
# Method: Thermogravimetric (TG) analyses were carried out on a TA Instruments 2050 or 2950 thermogravimetric analyzer. The calibration standards were nickel and Alumel™. Samples were placed in an aluminum sample pan, inserted into the TG furnace, and accurately weighed. The samples were heated in nitrogen at a rate of 10°C/min to either 300 or 350° C. Unless stated otherwise, samples weights were equilibrated at 25°C in the TGA furnace prior to analysis.
# Differential scanning calorimetry (DSC) analyses were carried out on a TA Instruments differential scanning calorimeter 2920. Accurately weighed samples were placed in either crimped pans or hermetically sealed pans that contained a pinhole to allow for pressure release. Each sample was heated under nitrogen at a rate of 10°C/min to either 300 or 350°C. Indium metal was used as the calibration standard. Temperatures were reported at the transition maxima.
# Chain of A2A-adenosine receptor (P29274 whole entry): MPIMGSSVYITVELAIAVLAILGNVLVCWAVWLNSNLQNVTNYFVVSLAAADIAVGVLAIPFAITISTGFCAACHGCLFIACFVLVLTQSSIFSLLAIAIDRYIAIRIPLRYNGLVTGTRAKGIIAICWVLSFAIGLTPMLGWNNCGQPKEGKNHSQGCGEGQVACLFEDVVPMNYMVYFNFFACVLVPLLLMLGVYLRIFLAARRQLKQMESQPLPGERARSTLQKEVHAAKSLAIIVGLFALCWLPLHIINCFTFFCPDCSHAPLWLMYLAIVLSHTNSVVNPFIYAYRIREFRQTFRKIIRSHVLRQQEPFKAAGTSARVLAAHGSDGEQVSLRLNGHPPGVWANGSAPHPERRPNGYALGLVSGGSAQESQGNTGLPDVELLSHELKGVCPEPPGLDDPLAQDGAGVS
structure (smiles),measurement,setting,value
"CNC(=O)c1cnn(-c2nc(N)c3ncn([C@@H]4O[C@H](CO)[C@@H](O)[C@H]4O)c3n2)c1 [(1-{9-[(4S,2R,3R,5R)-3,4-dihydroxy-5-(hydroxymethyl)oxolan-2-yl]-6-aminopurin-2-yl}pyrazol-4-yl)-N-methylcarboxamide]",selectivity as A2A-adenosine receptor agonist,A2A-adenosine receptor,highly selective
Nc1ncnc2c1ncn2[C@@H]1O[C@H](CO)[C@@H](O)[C@H]1O [Adenosine],half life,[1],less than 10 seconds
"CNC(=O)c1cnn(-c2nc(N)c3ncn([C@@H]4O[C@H](CO)[C@@H](O)[C@H]4O)c3n2)c1 [Amorphous Material, (1-{9-[(4S,2R,3R,5R)-3,4-dihydroxy-5-(hydroxymethyl)oxolan-2-yl]-6-aminopurin-2-yl}pyrazol-4-yl)-N-methylcarboxamide]",stability in the presence of atmospheric moisture,[2]; atmospheric moisture,unstable in the presence of atmospheric moisture
"CNC(=O)c1cnn(-c2nc(N)c3ncn([C@@H]4O[C@H](CO)[C@@H](O)[C@H]4O)c3n2)c1.O [Form A, (1-{9-[(4S,2R,3R,5R)-3,4-dihydroxy-5-(hydroxymethyl)oxolan-2-yl]-6-aminopurin-2-yl}pyrazol-4-yl)-N-methylcarboxamide monohydrate]",stability under relative humidity stress conditions,[2]; listed as monohydrate,"stable under relative humidity stress conditions, up to its melting point"
same,stability under relative humidity stress conditions,[2],stable under relative humidity stress conditions up to its melting point
same,relative stability among the polymorphs,[3]; listed as monohydrate,most stable
same,relative stability among the polymorphs,[3],most stable of the various polymorphs at ambient temperatures
"CNC(=O)c1cnn(-c2nc(N)c3ncn([C@@H]4O[C@H](CO)[C@@H](O)[C@H]4O)c3n2)c1 [Form C, (1-{9-[(4S,2R,3R,5R)-3,4-dihydroxy-5-(hydroxymethyl)oxolan-2-yl]-6-aminopurin-2-yl}pyrazol-4-yl)-N-methylcarboxamide]",stability at elevated temperatures,[3]; elevated temperatures,desolvates to an unstable form
